Data on 66 compounds can be found in a melting point compilation (Tetko et al.; mined from patent text by program, amines drawn as free bases though some values may be those of a salt).

As usually defined, the melting point is the temperature, or range, at which the solid turns liquid.

Compound `NCc1ccc(C2CCN(c3nc4c(cc3F)c(=O)c(C(=O)O)cn4C3CC3)C2)cc1` (stereo unspecified) registered a melting point of 268 to 272 °C.

Turning to `Cc1c[nH]c2c(Sc3nc4cc(Cl)ccc4[nH]3)ccc(N)c12`, the melting point was in the range of 229 to 230 °C.

For `CS(=O)c1ccc(C2=NN(S(=O)(=O)c3ccc(I)cc3)CCC2)cc1` (stereo unspecified), the melting point is 191 to 193 °C.

Compound `COc1ccc(OS(=O)(=O)c2ccc(N3CCN(C)C3=O)cc2)cc1` came in with a melting point of 183 to 185 °C.

Turning to `CCCCCCCCCCCCCCCCCCOc1cc(OCCC[PH](=O)OCC)cc(N(CC(=O)O)CC(=O)O)c1` (stereo unspecified), the melting point is 105 to 108 °C.

`CCCCSc1ccc2c3c(cccc13)C(=O)N2` came in with a melting point of 126 to 129 °C.

As to `CNC(=O)C(=NOC)c1ccccn1`, the melting point is 132 to 133 °C.

Consider `CCOC(=O)C(Cc1cnc2ccc(OC)cc2c1)(NC(C)=O)C(=O)OCC`, for which the melting point was in the range of 151 to 152 °C.

Regarding `COc1cc(OC)nc(NC(=O)NS(=O)(=O)c2c3ccccc3nn2C)n1`, the melting point was 199 to 202 °C.

In turn, `OCC1Cc2c(c(Cl)cc3c(-c4ccccc4Cl)noc23)O1` (stereo unspecified) returned a melting point of 162 to 163 °C.

In turn, `O=C(C=C1CCCCN1)c1ccccc1` had a melting point of 59 to 60 °C.

`CCOC(=O)c1nc2c(C)nn(CC)c2nc1OCCC(C)C` showed a melting point of 59 to 61 °C.

`CCN(CC)CCSC1=C(C#N)C(c2ccccc2)(c2cccnc2)C(=O)N1` (stereo unspecified) gave a melting point of 133 °C.

Compound `CN(C)CCCNc1nc2cc(Cl)c(Cl)cc2nc1-c1ccccn1` had a melting point of 59 to 61 °C.

For the compound `CC[Si](CC)(CC)O[C@@H](C(=O)OC)[C@@H](NC(=O)OC(C)(C)C)c1ccc(C(N)=O)cc1`, the melting point was 165 °C.

On to `COc1cc(C)nc(NC(=O)NS(=O)(=O)c2cccc3cc[nH]c23)n1`, for which the melting point lay in the range of 207 to 209 °C.

`CC(=O)C1(C)CCc2c(C)c(O)c(C)c(C)c2O1` (stereo unspecified) returned a melting point of 97 to 98 °C.

In the case of `CCCNC1=CC(=O)c2c(OC)ccc(OC)c2C1=O`, the melting point was 175 to 176 °C.

Consider `CCCc1c(C(=O)C(C)C)c2ccc(C(N)=O)cc2n1Cc1ccccc1[N+](=O)[O-]`, for which the melting point lay within 181 to 182 °C.

For `C=CCN1CCN(c2ncc3c(=O)c(C(=O)OCC)cn(CC)c3n2)CC1`, the melting point worked out at 131 °C.

On to `CC(C)(C)c1nc(C=NO)nc(C(C)(C)C)c1O`, for which the melting point fell in the range of 205 to 220 °C.

Compound `CCCCC#CCCOc1cc(/C=C/C(=O)Nc2ccccc2C(=O)O)ccc1OC` showed a melting point of 157 to 158 °C.

As for `CCOC(=O)c1nc2n(c(=O)c1O)CCC=C2c1ccccc1`, the melting point was 151 °C.

Turning to `CC=CCNc1cc(C(=O)O)cc(S(N)(=O)=O)c1Nc1ccc(NC(C)=O)cc1`, the melting point was determined as 230 °C.

On to `CCOC(=O)/C=C/C=C(c1cccc([N+](=O)[O-])c1)c1cccc([N+](=O)[O-])c1`, for which the melting point fell in the range of 105 to 106 °C.

`C#Cc1ccc(C(=O)OC(C)(C)C)cc1` displayed a melting point of 71.5 to 72 °C.

The compound `O=C(O)CCCCCCCCCCCc1ccccc1` came in with a melting point of 47 to 48 °C.

`COc1ccc2c(c1)CCC1CCNC(=O)C(CSC)=C21` (stereo unspecified) showed a melting point of 182 to 184 °C.

Compound `N#Cc1ccc2ccc(Br)cc2c1` yielded a melting point of 126 to 128 °C.

Consider `COC(=O)c1ccc(NS(C)(=O)=O)c(C=O)c1`, for which the melting point fell in the range of 161 to 163 °C.

`Cc1cncc(-c2nc3cc(NC(=O)c4c(C(=O)N5CCC5)cnn4C)ccn3n2)c1`: the melting point was in the range of 262 to 264 °C.

On to `CN(C(=O)c1ccccc1)C(=O)c1nc(Cl)c(Cl)[nH]1`, for which the melting point worked out at 168 °C.

In turn, `Cc1c(C)c(N2CCN(c3ccc(OC(F)(F)F)cc3)CC2)c(C)c2c1OC(C)(C)C2` showed a melting point of 216 to 219 °C.

`Cc1cccc(C(=O)NN(C(=O)c2ccccc2)C(C)(C)C)c1` registered a melting point of 111 to 114 °C.

`CC(C)n1nc(-c2sc(C(=O)NC3CC3)nc2-c2ccccc2)ccc1=O`: the melting point was in the range of 127 to 128 °C.

Compound `O=C(O)CCC/C=C/c1ccc(-c2ccccc2)cc1` came in with a melting point of 107 to 109 °C.

`COC(=O)C1=Cc2cc(Br)ccc2CCC1` came in with a melting point of 83 to 84 °C.

Take `CCCCC(=O)OCc1cnc(C)c(O)c1`: the melting point lay within 114 to 115 °C.

The compound `CC(C)(C)OC(=O)N1CCCC(C2=C(C#N)C(c3cccc(C#N)c3Br)c3c[nH]nc3N2)C1` (stereo unspecified) came in with a melting point of 238 °C.

Regarding `CC/C=C\Cn1c(=O)sc2c(N)ncnc21`, the melting point lay in the range of 134 to 135 °C.

The compound `O=C(O)c1ccccc1-c1cc(-c2ccc(O)cc2)[nH]n1` yielded a melting point of 260 to 264 °C.

Turning to `Fc1ccccc1N1CCN(Cc2nc3ccccc3[nH]2)CC1`, the melting point was 262 to 264 °C.

In turn, `CCN(CCO)c1ccc(I)cc1` yielded a melting point of 53 to 54 °C.

Compound `c1cncc(CSc2nnc(-c3ccc4c(c3)CCO4)o2)c1` returned a melting point of 118 to 122 °C.

Consider `Cc1noc2cc3c(cc12)C1(CO3)C(=O)N(Cc2ccc(-c3ccno3)cc2)c2ccccc21` (stereo unspecified), for which the melting point is 192 to 194 °C.

As to `NS(=O)(=O)c1ccc(-n2nc(C(F)F)cc2-c2nc3ccc(F)cc3s2)cc1`, the melting point stood at 255 °C.

Regarding `CCCn1c(=O)c2c(nc(/C=C/c3ccc(OC)c(O)c3)n2C)n(CCC)c1=O`, the melting point fell in the range of 200 to 204 °C.

`CCOC(=O)N1CCC(Cc2nc3ccccc3n2Cc2cccc(C)n2)CC1` returned a melting point of 160 °C.

For the compound `Cc1cccc(C)c1OC1CN(C(c2ccccc2)c2ccccc2)C1`, the melting point fell in the range of 99 to 100 °C.

The compound `CNN(NC)C(=O)Nc1cccc2c1C(=O)c1c-2n[nH]c1-c1ccc(OC)cc1` came in with a melting point greater than 300 °C.

In turn, `C=CC(=O)NCCCCCCCCCCCCOc1ccccc1` registered a melting point of 69 to 71 °C.

`CCCN(CCC)S(=O)(=O)c1cc(-c2csc(=Nc3ccc(C)cc3C)n2C)ccc1Cl` yielded a melting point of 139 to 141 °C.

For `CCCCCCCNC(=O)Nc1ccccc1C(=O)NC1CCNCC1`, the melting point turned out to be 159 °C.

The compound `O=C1CNCC2=C1N=C1N=C(N3CCOCC3)NN1C2` displayed a melting point of 308 to 310 °C.

`CCCCOC(=O)c1cc(Oc2ccc3c(C(=O)Nc4cccc(C(F)(F)F)c4)cccc3c2)ccn1` displayed a melting point of 128 to 130 °C.

`CCOCOCCCc1ccc(C(=O)O)cc1C12CC3CC(CC(C3)C1)C2` yielded a melting point of 115 °C.

In turn, `Cc1c(C#N)c(SC(F)(F)F)cn1-c1c(Cl)cc(C(F)(F)F)cc1Cl` had a melting point of 98.5 °C.

In the case of `NCCc1ccc(Cl)c(Cl)c1CCO`, the melting point is 79 to 80 °C.

Compound `CCOC(=O)c1nc(C(C)(C)C)nc2ccccc12` yielded a melting point of 46 to 47 °C.

`O=S(Cc1cccc(C(F)(F)F)c1)c1nc2cnccc2[nH]1` (stereo unspecified) gave a melting point of 194 to 197 °C.

The compound `COc1cc(C=S2C=CN=C2N)c([N+](=O)[O-])cc1OC` (stereo unspecified) showed a melting point of 125 to 130 °C.

Compound `CSc1nc(N)c2ncn(COCCO)c2n1` had a melting point of 174 to 176 °C.

`CC12CCC3=C4CCC(=O)C=C4CCC3C1C=CC2=O` (stereo unspecified) gave a melting point of 182 to 183 °C.

Compound `NCC1CC(n2cc(-c3cccc(F)c3)c3c(N)ncnc32)C1` (stereo unspecified) yielded a melting point of 101 to 102 °C.

Compound `Cc1ccn(-c2ccc(-c3nc4cccnc4n3-c3ccc(CCNCC(O)COc4ccc(O)cc4)cc3)c(Cl)c2)n1` (stereo unspecified) came in with a melting point of 87 to 89 °C.

Turning to `CCOc1nc2c(cc1C)C(=O)c1ccccc1C2=O`, the melting point was in the range of 186 to 188 °C.
